Tests used:
[1] = AEPU metabolism in rat liver S9 fraction; assay type: in vitro ADME
[2] = Plasma cholesterol levels in ApoE -/- mice; assay type: in vivo, mouse; conditions: AEPU-treated ApoE -/- mice
[3] = target: T1, purified murine sEH recombinant enzyme (Mus musculus, UniProt P34914); test: sEH activity fluorescent assay; assay type: biochemical
T1 sequence (P34914 1-554): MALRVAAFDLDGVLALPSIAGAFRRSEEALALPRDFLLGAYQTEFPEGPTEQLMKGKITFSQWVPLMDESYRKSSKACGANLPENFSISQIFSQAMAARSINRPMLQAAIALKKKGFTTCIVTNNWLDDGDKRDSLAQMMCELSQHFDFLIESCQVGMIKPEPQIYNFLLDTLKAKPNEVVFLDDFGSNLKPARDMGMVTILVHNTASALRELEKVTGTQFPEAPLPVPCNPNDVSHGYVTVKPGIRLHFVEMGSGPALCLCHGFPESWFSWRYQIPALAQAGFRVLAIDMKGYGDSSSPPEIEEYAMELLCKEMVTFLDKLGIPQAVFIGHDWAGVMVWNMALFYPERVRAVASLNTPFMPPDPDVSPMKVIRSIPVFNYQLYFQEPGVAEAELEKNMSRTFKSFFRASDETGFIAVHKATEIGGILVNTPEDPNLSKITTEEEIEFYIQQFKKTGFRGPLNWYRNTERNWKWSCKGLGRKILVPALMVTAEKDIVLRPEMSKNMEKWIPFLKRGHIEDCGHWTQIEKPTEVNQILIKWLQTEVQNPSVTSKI

[4] = Single oral dose pharmacokinetic study in mice; assay type: in vivo, mouse; conditions: AEPU by oral gavage 10 mg/kg, over 24 hours
in vivo = conditions: ApoE -/-, mouse, plasma, oral, 90 µg/ml in drinking water

SMILES | Metabolism in the absence of NADPH ([1]; rat S9 liver preparation without NADPH) | AEPU remaining in the mixture ([1]; rat liver S9 2.5 mg/mL, NADPH generating system, AEPU 10 µM, 60 min) | Plasma cholesterol level ([2]; control 2.5±0.6 mM) [mM] | Plasma cholesterol level ([2]; control 96.2±23.1 mg/dl) [mg/dL] | IC50 [3] [µM] | fold less potent on the enzyme than AEPU ([3]; murine sEH) [fold] | times more abundant in the plasma than AEPU [4] | concentration at 8 weeks (in vivo) [µM]
CCOCCOCCOCCCCCNC(=O)NC12CC3CC(CC(C3)C1)C2 [AEPU, 1-adamantan-3-(5-(2-(2-ethylethoxy)ethoxy)pentyl)urea] | no metabolism | less than 10% | 2.5 ± 0.9 | 96.2 ± 34.6 | – | – | – | –
CCOCCOCCOCCCCCNC(=O)NC12CC3CC(CC(O)(C3)C1)C2 [Compound 1010, 1-{5-[2-(2-ethoxyethoxy)-ethoxy]-pentyl}-3-(3-hydroxy-adamantan-1-yl)-urea] | – | – | – | – | 0.078 ± 0.019 | 28 | roughly 5,000 times | 0.565
O=C(NCCCCCOCCOCCOCCO)NC12CC3CC(CC(C3)C1)C2 [Compound 975, 1-adamantan-1-yl-3-(5-{2-[2-(2-hydroxy-ethoxy)-ethoxy]-ethoxy}-pentyl)-urea] | – | – | – | – | 0.0047 ± 0.0007 | – | – | –

Source: article PMC2637359 (Journal of cardiovascular pharmacology, 2008)
